Activity calls are given as the source filed them.
Assays:
[1] = Toxicity in Balb/c mouse implanted with mouse 4T1 cells assessed as lung lesions at 50 mg/kg administered intratumorally every four days for 14 days in the presence of liquid cyanoacrylate by H&E staining based histopathological analysis; type: organism-based; conditions: in vivo, other, 336 h, route it(Intratumoral), time 14 day
[2] = Acute toxicity in mouse assessed as lethal dose measured over 14 days; conditions: in vivo, 336 h, time 14 day
MDA-MB-231 [3] = assay: Induction of apoptosis in human MDA-MB-231 cells assessed as deep cytoplasm at 1 uM incubated for 24 hrs by transmission electron microscopic analysis; type: functional, cell-based
[4] = Toxicity in Balb/c mouse xenografted with mouse 4T1 cells assessed as liver lesions at 200 mg/kg administered topically over the tumor surface every two days for 14 days in the presence of cyanoacrylate by H&E staining based histopathological analysis; type: organism-based; conditions: in vivo, topical_or_ocular, 336 h, route top, time 14 day
[5] = Toxicity in Balb/c mouse implanted with mouse 4T1 cells assessed as heart lesions at 50 mg/kg administered intratumorally every four days for 14 days in the presence of liquid cyanoacrylate by H&E staining based histopathological analysis; type: organism-based; conditions: in vivo, other, 336 h, route it(Intratumoral), time 14 day
[6] = Acute toxicity in mouse assessed as death rate ratio at 378 mg/kg, ip measured over 14 days; type: organism-based; conditions: in vivo, 336 h, time 14 day
[7] = Toxicity in Balb/c mouse implanted with mouse 4T1 cells assessed as liver lesions at 50 mg/kg administered intratumorally every four days for 14 days by H&E staining based histopathological analysis; type: organism-based; conditions: in vivo, other, 336 h, route it(Intratumoral), time 14 day
[8] = Drug metabolism in Balb/c mouse liver implanted with mouse 4T1 cells assessed as dechlorination of parent compound causing metabolite formation by LC-MS analysis; type: ADME, tissue-based
[9] = Drug metabolism in Balb/c mouse spleen implanted with mouse 4T1 cells assessed as dechlorination of parent compound causing metabolite formation by LC-MS analysis; type: ADME, tissue-based
[10] = Toxicity in Balb/c mouse xenografted with mouse 4T1 cells assessed as spleen lesions at 200 mg/kg administered topically over the tumor surface every two days for 14 days in the presence of cyanoacrylate by H&E staining based histopathological analysis; type: organism-based; conditions: in vivo, topical_or_ocular, 336 h, route top, time 14 day
[11] = Drug metabolism in Balb/c mouse kidney implanted with mouse 4T1 cells assessed as dechlorination of parent compound causing metabolite formation by LC-MS analysis; type: ADME, tissue-based
[12] = Toxicity in Balb/c mouse implanted with mouse 4T1 cells assessed as heart lesions at 50 mg/kg administered intratumorally every four days for 14 days by H&E staining based histopathological analysis; type: organism-based; conditions: in vivo, other, 336 h, route it(Intratumoral), time 14 day
MDA-MB-231 [13] = assay: Induction of apoptosis in human MDA-MB-231 cells assessed as increase in caspase 9 expression at 0.5 to 3 times of IC50 concentration by Western blot analysis; type: functional, cell-based
4T1 = assay: Antitumor activity against mouse 4T1 cells implanted in Balb/c mouse assessed as apoptotic rate of dissected tumor cell at 50 mg/kg administered intratumorally every four days for 14 days in the presence of liquid cyanoacrylate by flow cytometric analysis (reference value: 64.83%); type: functional; conditions: route it(Intratumoral), time 14 day
[14] = Toxicity in Balb/c mouse implanted with mouse 4T1 cells assessed as spleen lesions at 50 mg/kg administered intratumorally every four days for 14 days in the presence of liquid cyanoacrylate by H&E staining based histopathological analysis; type: organism-based; conditions: in vivo, other, 336 h, route it(Intratumoral), time 14 day
[15] = Drug metabolism in Balb/c mouse kidney implanted with mouse 4T1 cells assessed as 2-methyl hydroxylation of parent compound causing metabolite formation by LC-MS analysis; type: ADME, tissue-based
MDA-MB-231 [16] = assay: Induction of apoptosis in human MDA-MB-231 cells assessed as nuclear chromatin condensation at 1 uM incubated for 24 hrs by transmission electron microscopic analysis; type: functional, cell-based
Mus musculus = assay: Protection of Balb/c mouse spleen implanted with mouse 4T1 cells at 50 mg/kg administered intratumorally every four days for 14 days in the presence of liquid cyanoacrylate; type: functional, organism-based; conditions: route it(Intratumoral), time 14.0 day
A549 = assay: Antiproliferative activity against human A549 cells assessed as inhibition of cell growth by MTT assay; type: functional, cell-based
[17] = Toxicity in Balb/c mouse implanted with mouse 4T1 cells assessed as effect on body weight at 50 mg/kg administered intratumorally every four days for 14 days in the presence of liquid cyanoacrylate; type: organism-based; conditions: in vivo, other, 336 h, route it(Intratumoral), time 14 day
MDA-MB-231 [18] = assay: Induction of apoptosis in human MDA-MB-231 cells assessed as increase in p53 level at 100 nM incubated for 48 hrs; type: functional, cell-based
[19] = Toxicity in Balb/c mouse implanted with mouse 4T1 cells assessed as spleen lesions at 50 mg/kg administered intratumorally every four days for 14 days by H&E staining based histopathological analysis; type: organism-based; conditions: in vivo, other, 336 h, route it(Intratumoral), time 14 day
MDA-MB-231 [20] = assay: Induction of cell cycle arrest in human MDA-MB-231 cells assessed as increase in G2 phase cells at 10 uM incubated for 24 hrs by PI staining based flow cytometric analysis (reference value: 8.95%); type: functional
MDA-MB-231 [21] = assay: Induction of apoptosis in human MDA-MB-231 cells assessed as increase in Bax expression at 0.5 to 3 times of IC50 concentration by Western blot analysis; type: functional, cell-based
MDA-MB-231 [22] = assay: Induction of apoptosis in human MDA-MB-231 cells assessed as reduction in cell volume at 1 uM incubated for 24 hrs by transmission electron microscopic analysis; type: functional, cell-based
[23] = Drug metabolism in Balb/c mouse spleen implanted with mouse 4T1 cells assessed as 2-methyl hydroxylation of parent compound causing metabolite formation by LC-MS analysis; type: ADME, tissue-based
[24] = Acute toxicity in mouse assessed as death rate ratio at 238 mg/kg, ip measured over 14 days; type: organism-based; conditions: in vivo, 336 h, time 14 day
[25] = Acute toxicity in mouse assessed as death rate ratio at 600 mg/kg, ip measured over 14 days; type: organism-based; conditions: in vivo, 336 h, time 14 day
MDA-MB-231 [26] = assay: Induction of apoptosis in human MDA-MB-231 cells assessed as change in membrane osmotic transport capacity; type: functional, cell-based
[27] = Toxicity in Balb/c mouse implanted with mouse 4T1 cells assessed as kidney lesions at 50 mg/kg, ip administered every two days for 14 days by H&E staining based histopathological analysis; type: organism-based; conditions: in vivo, 336 h, time 14 day
MDA-MB-231 [28] = assay: Induction of apoptosis in human MDA-MB-231 cells assessed as late apoptotic cells by measuring red fluorescence at 0.01 to 1 uM by PI staining based fluorescence microscopic analysis; type: functional, cell-based; conditions: dose 0.01-1 µM
MDA-MB-231 [29] = assay: Induction of mitochondrial membrane potential loss in human MDA-MB-231 cells assessed as increase in green fluorescence intensity at 0.1 to 1 uM measured after 24 hrs byJC-1 staining based fluorescence microscopic analysis; type: functional, cell-based; conditions: dose 0.1-1 µM
[30] = Toxicity in Balb/c mouse xenografted with mouse 4T1 cells assessed as kidney lesions at 200 mg/kg administered topically over the tumor surface every two days for 14 days in the presence of cyanoacrylate by H&E staining based histopathological analysis; type: organism-based; conditions: in vivo, topical_or_ocular, 336 h, route top, time 14 day
MDA-MB-231 [31] = assay: Induction of apoptosis in human MDA-MB-231 cells assessed as increase in p53 protein expression at 1 uM incubated for 24 hrs by Western blot analysis; type: functional, cell-based
MDA-MB-231 [32] = assay: Induction of apoptosis in human MDA-MB-231 cells assessed as increase in cytoplasmic vacuoles at 1 uM incubated for 24 hrs by transmission electron microscopic analysis; type: functional, cell-based
[33] = Toxicity in Balb/c mouse implanted with mouse 4T1 cells assessed as liver lesions at 50 mg/kg administered intratumorally every four days for 14 days in the presence of liquid cyanoacrylate by H&E staining based histopathological analysis; type: organism-based; conditions: in vivo, other, 336 h, route it(Intratumoral), time 14 day

Cc1[nH]c2ccccc2c1C1=C(Cl)C(=O)C(Cl)=C(N2CCOCC2)C1=O
1: Ratio [25]
374 mg/kg: LD50 [2]
Metabolite_Detected: Drug metabolism [8] | Drug metabolism [9] | Drug metabolism [11] | Drug metabolism [15] | Drug metabolism [23]
0.17: Ratio [24]
55.05%: Activity (MDA-MB-231 [20])
210 nM: IC50 (A549)
76.24%: Activity (4T1)
0.5: Ratio [6]
active: Activity (MDA-MB-231 [3]) | Activity (MDA-MB-231 [13]) | Activity (MDA-MB-231 [16]) | Activity (Mus musculus) | Activity (MDA-MB-231 [18]) | Activity (MDA-MB-231 [21]) | Activity (MDA-MB-231 [22]) | Activity (MDA-MB-231 [26]) | Activity (MDA-MB-231 [28]) | Activity (MDA-MB-231 [29]) | Activity (MDA-MB-231 [31]) | Activity (MDA-MB-231 [32])
Non-Toxic: Activity [1] | Activity [4] | Activity [5] | Activity [7] | Activity [10] | Activity [12] | Activity [14] | Activity [17] | Activity [19] | Activity [27] | Activity [30] | Activity [33]
